test system: U937 cells; assay: Human U937 cellular necroptosis assay; assay type: cell-based; conditions: U-937; U937 cells stimulated with 25 ng/mL human TNFalpha and 25 μM z-VAD-FMK; 22 hr; Cell Titer-Glo viability
Description: Human U937 Cellular Necroptosis Assay
The human monocytic cell line U937 (CRL-1593.2) may be purchased from ATCC. The cells are routinely maintained in RPMI-1640 Medium (Gibco, Catalog #11875-093) supplemented with 10% heat inactivated fetal bovine serum (Gibco, Catalog #16140-071), 100 units/mL penicillin and 100 μg/mL streptomycin (Gibco, Catalog #15140-122), in a humidified incubator (37° C., 5% CO2). For the assay, cells are resuspended in RPMI-1640 phenol red free Media (Gibco, Catalog #11835-030) supplemented with 10% fetal bovine serum (Sigma, Catalog #F2442), 100 units/mL penicillin and 100 ug/mL streptomycin. […] Stock solutions of the test compounds are prepared in 100% DMSO (Sigma, Catalog #D2650) and serially diluted 1:3 using 100% DMSO. Compounds are additionally diluted 1:40 in assay medium, and 10 μL/well was transferred to the plate. Following the compound addition, the plate is incubated at 37° C. and 5% CO2 for 22 hr. After 22 hr, viability is assessed with the addition of 20 μL of Cell Titer-Glo 2.0 (Promega, Catalog #G9243). The tissue culture plate is shaken on an orbital shaker at 300 RPM for 15 minutes at room temperature in the dark. Luminescence is measured using a PerkinElmer Envision™ plate reader. IC50 values are calculated using a four-parameter logistic curve fit using Genedata Screener software.

| Compound | IC50 [nM] |
| --- | --- |
| Cn1cc(Cn2nc3c(c2Cl)CCN(c2cccc(Cl)c2F)C3=O)cn1 [Example 68, 3-chloro-6-(3-chloro-2-fluorophenyl)-2-((1-methyl-1H-pyrazol-4-yl)-methyl)-2,4,5,6-tetrahydro-7H-pyrazolo[3,4-c]pyridin-7-one] | 1340 |
| O=C1c2nn(CC3CCCOC3)c(Cl)c2CCN1c1cccc(Cl)c1F (centres unmarked) [Example 69, 3-chloro-6-(3-chloro-2-fluorophenyl)-2-((tetrahydro-2H-pyran-3-yl)methyl)-2,4,5,6-tetrahydro-7H-pyrazolo[3,4-c]pyridin-7-one] | 563 |
| Cc1c2c(nn1Cc1ccccc1)C(=O)N(c1cccc(Cl)c1F)CC2 [Example 70, 2-benzyl-6-(3-chloro-2-fluorophenyl)-3-methyl-2,4,5,6-tetrahydro-7H-pyrazolo[3,4-c]pyridin-7-one] | 233 |
| N#Cc1c2c(nn1Cc1ccccc1)C(=O)N(c1cccc(Cl)c1F)CC2 [Example 71, 2-benzyl-6-(3-chloro-2-fluorophenyl)-7-oxo-4,5,6,7-tetrahydro-2H-pyrazolo[3,4-c]pyridine-3-carbonitrile] | 256 |
| NCc1c2c(nn1Cc1ccccc1)C(=O)N(c1cccc(Cl)c1F)CC2 [Example 72, 3-(aminomethyl)-2-benzyl-6-(3-chloro-2-fluorophenyl)-2,4,5,6-tetrahydro-7H-pyrazolo[3,4-c]pyridin-7-one] | 6110 |
| O=C1c2nn(Cc3ccccc3)c(CO)c2CCN1c1cccc(Cl)c1F [Example 73, 2-benzyl-6-(3-chloro-2-fluorophenyl)-3-(hydroxymethyl)-2,4,5,6-tetrahydro-7H-pyrazolo[3,4-c]pyridin-7-one] | 348 |
| O=C1c2nn(Cc3ccccc3)c(C(F)F)c2CCN1c1cccc(Cl)c1F [Example 74, 2-Benzyl-6-(3-chloro-2-fluorophenyl)-3-(difluoromethyl)-2,4,5,6-tetrahydro-7H-pyrazolo[3,4-c]pyridin-7-one] | 42 |
| O=C1c2nn(Cc3ncccc3F)c(Cl)c2CCN1c1cc(CO)cc(Cl)c1F [Example 76, 3-chloro-6-(3-chloro-2-fluoro-5-(hydroxymethyl)phenyl)-2-((3-fluoropyridin-2-yl)methyl)-2,4,5,6-tetrahydro-7H-pyrazolo[3,4-c]pyridin-7-one] | 917 |
| O=C1c2nn(Cc3ncccc3F)cc2CCN1c1cc(CO)cc(Cl)c1F [Example 77, 6-(3-chloro-2-fluoro-5-(hydroxymethyl)phenyl)-2-((3-fluoropyridin-2-yl)methyl)-2,4,5,6-tetrahydro-7H-pyrazolo[3,4-c]pyridin-7-one] | 594 |
| CN(C)Cc1cc(Cl)c(F)c(N2CCc3c(nn(Cc4ncccc4F)c3Cl)C2=O)c1 [Example 78, 3-chloro-6-(3-chloro-5-((dimethylamino)methyl)-2-fluorophenyl)-2-((3-fluoropyridin-2-yl)methyl)-2,4,5,6-tetrahydro-7H-pyrazolo[3,4-c]pyridin-7-one] | > 10000 |
| O=C1c2nn(Cc3cccc(F)c3F)c(Cl)c2CCN1c1cc(CO)cc(Cl)c1F [Example 79, 3-chloro-6-(3-chloro-2-fluoro-5-(hydroxymethyl)phenyl)-2-(2,3-difluorobenzyl)-2,4,5,6-tetrahydro-7H-pyrazolo[3,4-c]pyridin-7-one] | 346 |
| COCCOCc1cc(Cl)c(F)c(N2CCc3c(nn(Cc4cccc(F)c4F)c3Cl)C2=O)c1 [Example 80, 3-chloro-6-(3-chloro-2-fluoro-5-((2-methoxyethoxy)methyl)phenyl)-2-(2,3-difluorobenzyl)-2,4,5,6-tetrahydro-7H-pyrazolo[3,4-c]pyridin-7-one] | 958 |
| COCc1cc(Cl)c(F)c(N2CCc3c(nn(Cc4cccc(F)c4F)c3Cl)C2=O)c1 [Example 81, 3-chloro-6-(3-chloro-2-fluoro-5-(methoxymethyl)phenyl)-2-(2,3-difluorobenzyl)-2,4,5,6-tetrahydro-7H-pyrazolo[3,4-c]pyridin-7-one] | > 10000 |
| O=C1c2nn(Cc3cccc(F)c3F)c(Cl)c2CCN1c1cc(Cn2ccnc2)cc(Cl)c1F [Example 82, 6-(5-((1H-imidazol-1-yl)methyl)-3-chloro-2-fluorophenyl)-3-chloro-2-(2,3-difluorobenzyl)-2,4,5,6-tetrahydro-7H-pyrazolo[3,4-c]pyridin-7-one] | 863 |
| O=C1c2nn(Cc3cccc(F)c3F)c(Cl)c2CCN1c1cc(CNCC(F)(F)F)cc(Cl)c1F [Example 83, 3-chloro-6-(3-chloro-2-fluoro-5-(((2,2,2-trifluoroethyl)amino)methyl)phenyl)-2-(2,3-difluorobenzyl)-2,4,5,6-tetrahydro-7H-pyrazolo[3,4-c]pyridin-7-one] | 1230 |
| N#CCc1cc(Cl)c(F)c(N2CCc3c(nn(Cc4cccc(F)c4F)c3Cl)C2=O)c1 [Example 84, 2-(3-chloro-5-(3-chloro-2-(2,3-difluorobenzyl)-7-oxo-2,4,5,7-tetrahydro-6H-pyrazolo[3,4-c]pyridin-6-yl)-4-fluorophenyl)acetonitrile] | 142 |
| CC(=O)NCc1cc(Cl)c(F)c(N2CCc3c(nn(Cc4cccc(F)c4F)c3Cl)C2=O)c1 [Example 85, N-(3-chloro-5-(3-chloro-2-(2,3-difluorobenzyl)-7-oxo-2,4,5,7-tetrahydro-6H-pyrazolo[3,4-c]pyridin-6-yl)-4-fluorobenzyl)acetamide] | 1040 |
| Cc1cnc(Cn2cnc(C(=O)Nc3cccc(Cl)c3F)n2)cn1 [Example 91, N-(3-chloro-2-fluorophenyl)-1-((5-methylpyrazin-2-yl)methyl)-1H-1,2,4-triazole-3-carboxamide] | 2560 |
| NCc1cc(Cl)c(F)c(NC(=O)c2ncn(Cc3ccccc3)n2)c1 [Example 92, N-(5-(aminomethyl)-3-chloro-2-fluorophenyl)-1-benzyl-1H-1,2,4-triazole-3-carboxamide] | 1650 |
| CS(=O)(=O)NCc1cc(Cl)c(F)c(NC(=O)c2ncn(Cc3ccccc3)n2)c1 [Example 93, 1-Benzyl-N-(3-chloro-2-fluoro-5-(methylsulfonamidomethyl)phenyl)-1H-1,2,4-triazole-3-carboxamide] | 1500 |
| O=C(Nc1cc(CO)cc(Cl)c1F)c1ncn(Cc2ccccc2)n1 [Example 94, 1-Benzyl-N-(3-chloro-2-fluoro-5-(hydroxymethyl)phenyl)-1H-1,2,4-triazole-3-carboxamide] | 797 |
| COCCOCc1cc(Cl)c(F)c(NC(=O)c2ncn(Cc3ccccc3)n2)c1 [Example 95] | 529 |
| N#CCc1cc(Cl)c(F)c(NC(=O)c2ncn(Cc3ccccc3)n2)c1 [Example 96, 1-Benzyl-N-(3-chloro-5-(cyanomethyl)-2-fluorophenyl)-1H-1,2,4-triazole-3-carboxamide] | 347 |
| O=C(Nc1cc(Cn2ccnc2)cc(Cl)c1F)c1ncn(Cc2ccccc2)n1 [Example 97, N-(5-((1H-imidazol-1-yl)methyl)-3-chloro-2-fluorophenyl)-1-benzyl-1H-1,2,4-triazole-3-carboxamide] | 1180 |
| O=C(Nc1cc(Cn2cnc3ccccc32)cc(Cl)c1F)c1ncn(Cc2ccccc2)n1 [Example 98, N-(5-((1H-benzo[d]imidazol-1-yl)methyl)-3-chloro-2-fluorophenyl)-1-benzyl-1H-1,2,4-triazole-3-carboxamide] | 3860 |
| O=C(Nc1cc(Cn2cccn2)cc(Cl)c1F)c1ncn(Cc2ccccc2)n1 [Example 99, N-(5-((1H-pyrazol-1-yl)methyl)-3-chloro-2-fluorophenyl)-1-benzyl-1H-1,2,4-triazole-3-carboxamide] | 2540 |

molecular target: RIPK1 (Homo sapiens (Human), UniProt Q13546); assay: ADP-Glo kinase assay, RIPK1 activity; assay type: biochemical; conditions: 5 nM RIPK1, 50 μM ATP, 6 hr reaction
Description: In order to measure RIPK1 activity the ADP-Glo kinase assay (Promega, Catalog #V7002) was used to measure the conversion of ATP to ADP. This enzymatic assay was performed in a 384-well white, Optiplate (Perkin Elmer, Catalog #6007299) with assay buffer consisting of 50 mM HEPES pH 7.5 (Gibco, Catalog #15630-080), 50 mM NaCl (Teknova, Catalog #S0252), 30 mM MgCl2 (Ambion, Catalog #AM9530G), 1 mM DTT (Santa Cruz Biotechnology, Catalog #sc-29089), 0.05% BSA (Sigma, Catalog #A3059-50G) and 0.02% CHAPS (Sigma, Catalog #C5070-5G). Stock solutions of the test compounds were prepared in 100% DMSO (Sigma, Catalog #D2650) and serially diluted 1:3 using 100% DMSO. Compounds were additionally diluted 1:40 in assay buffer, and 2 μL/well were transferred to the assay plate. 4 μL/well (final concentration of 5 nM) of RIPK1 protein (SignalChem, Catalog #R07-11G-05) diluted in assay buffer and added to the assay plate followed by a 10 minute preincutation at room temperature. 4 μL/well of ATP (Promega, Catalog #V7002) (final concentration of 50 μM) diluted in assay buffer were then added to the assay plate followed by a 6 hr reaction time. Final concentrations of RIPK1 and ATP refer to a 10 μL volume. Luminescence was measured using a BioTek Synergy™ NEO plate reader. IC50 values were calculated using a four-parameter logistic curve fit using Genedata Screener software.

Chain of RIPK1 (Q13546 1-327): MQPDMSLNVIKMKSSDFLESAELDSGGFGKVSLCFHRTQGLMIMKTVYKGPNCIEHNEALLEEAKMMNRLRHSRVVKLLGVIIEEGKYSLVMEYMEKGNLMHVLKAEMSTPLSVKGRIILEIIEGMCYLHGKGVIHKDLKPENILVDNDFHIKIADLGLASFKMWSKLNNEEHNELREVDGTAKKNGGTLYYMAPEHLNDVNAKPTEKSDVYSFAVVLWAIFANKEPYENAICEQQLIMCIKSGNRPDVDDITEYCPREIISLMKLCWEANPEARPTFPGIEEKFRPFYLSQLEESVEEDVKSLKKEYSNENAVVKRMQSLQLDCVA

| Compound | IC50 [µM] |
| --- | --- |
| Cc1cc(C(=O)Nc2cccc(Cl)c2F)nn1Cc1ccccc1 [Example 5, 1-benzyl-N-(3-chloro-2-fluoro-phenyl)-5-methyl-pyrazole-3-carboxamide] | 14.5 |
| Cc1c(F)c(C(=O)Nc2cccc(Cl)c2F)nn1Cc1ccccc1 [Example 6, 1-Benzyl-N-(3-chloro-2-fluorophenyl)-4-fluoro-5-methyl-1H-pyrazole-3-carboxamide] | 0.92 |
| O=C(Nc1cccc(Cl)c1F)c1ccn(Cc2ccccc2)n1 [Example 7, 1-Benzyl-N-(3-chloro-2-fluorophenyl)-1H-pyrazole-3-carboxamide] | 12.1 |

— patent US11718612B2, “Inhibitors of receptor interacting protein kinase I for the treatment of disease” (Board of Regents, The University of Texas System, priority 2019, dated 2023)
